Like-named read-outs stand apart in the source and are kept apart here.
Legend:
[1] = test system: Hepatitis B virus (HBV); test: Secretion of enveloped HBV from Hep G2.2.15 cells, antigen capture/PCR assay; format: cell-based
Text: Pairs of wells were used for each concentration point.
^2IC 50: The concentration of compound that prevented the secretion of 50% of the amount of HBV detected in the medium from wells containing untreated cultures.

[2] = test system: MDBK cells; test: Toxicity / cell cytotoxicity in MDBK cells; format: cell-based; settings: for % Viability at 10 μM: N-alkyl DNJ at 10 μM; for % Viability at 100 μM: N-alkyl DNJ at 100 μM
[3] = target: T1, ceramide glucosyl transferase (CerGlcT) (Homo sapiens, UniProt Q16739); test: Inhibition of ceramide glucosyl transferase / glycolipid synthesis; format: biochemical; settings: for IC50: N-alkyl DNJ derivatives; for Inhibitor of glycolipid synthesis: Yes/No
T1 sequence (Q16739 1-394): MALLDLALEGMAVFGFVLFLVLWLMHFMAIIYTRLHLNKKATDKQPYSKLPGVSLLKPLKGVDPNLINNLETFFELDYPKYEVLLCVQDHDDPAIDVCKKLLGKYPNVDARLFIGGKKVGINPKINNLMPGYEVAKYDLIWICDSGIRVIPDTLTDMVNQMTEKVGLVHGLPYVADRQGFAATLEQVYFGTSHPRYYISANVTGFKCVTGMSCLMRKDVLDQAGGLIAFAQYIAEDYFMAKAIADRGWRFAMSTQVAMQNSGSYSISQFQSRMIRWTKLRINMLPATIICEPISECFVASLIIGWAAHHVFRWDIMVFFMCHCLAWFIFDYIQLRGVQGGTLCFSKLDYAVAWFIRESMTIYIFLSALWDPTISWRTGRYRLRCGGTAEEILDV

[4] = target: α-glucosidase; test: Inhibition of α-glucosidase; format: biochemical; settings: for IC50: N-alkyl DNJ derivatives; for Inhibitor of α glucosidase: Yes/No
Text: The inhibitory activity (IC50) and the cell cytotoxicity (IC50) of various compounds, as well as their effect on α-glucosidase and ceramide glucosyl transferase, are shown in Table 2.

[5] = test system: BVDV; test: BVDV plaque reduction and yield assays in MDBK cells; format: cell-based, bovine viral diarrhea virus; settings: for Anti-viral effect on BVDV in MDBK cells: Yes/No
[6] = Toxicity / cell cytotoxicity in MDBK cells; format: cell-based; settings: bovine
[7] = test system: HBV; test: Secreted HBV DNA by Southern blot hybridization; format: cell-based, hepatitis B virus; settings: HepG2.2.15 cells, seven days
Experimental: Secreted DNA analysis: Secreted DNA analysis was performed by the method of Wei et al. (J. Virol. 70:6455-6458, 1996). […] Media containing drug was changed every two days and on the 7th day the media taken and the virus concentrated by pelleting through 20% sucrose for 16 hours (SW 41 rotor, 36,000 RPM). Virus was resuspended in 400 μL of 10 mM TRIS (pH 7.9), 10 mM EDTA (pH 8.0), and 10 mM MgCl2. Samples were split into two 200 μL aliquots and labeled as +Dnase and −Dnase. To both tubes, 15 μl of proteinase K was added to a final concentration of 750 μg/ml for one hour at 37° C. After one hour, 10 pl Dnase was added to the tube labeled +Dnase (final concentration is 50 units/ml) and incubated at 37° C. for one hour. SDS was added to a final concentration of 1% and additional proteinase K added to a final concentration of 500 μg/ml and the reaction allowed to proceed at 37° C. for 3-4 hours. DNA was than purified by phenol/chloroform extraction. DNA was separated on 1% agarose gel and probed with ^32P labeled probes as described (Mehta et al., Proc. Natl. Acad. Sci. USA 94:1822-1827, 1997).
HepG2.2.15 cells were grown for seven days in the absence or presence of NB-DNJ (1000 μg/ml), NN-DNJ (20 μg/ml) or NN-DGJ (20 μg/ml), respectively. After seven days, virus was isolated from these cell cultures, concentrated, and purified. Secreted HBV DNA was detected by Southern blot hybridization. HBV viral DNA from untreated cells was readily detected. The secretion of HBV DNA from treated HepG2.2.15 was also detected.

[8] = test system: HBV; test: Intracellular HBV DNA in HepG2.2.15 cells by Southern blot; format: cell-based, hepatitis B virus; settings: seven days; for Effect on intracellular HBV DNA: 3TC 1 μg/ml, NB-DNJ 1000 μg/ml, NN-DNJ and NN-DGJ 2 or 20 μg/ml
Experimental: Intracellular DNA analysis: Hep G2.2.15 cells were either left untreated or treated with the compounds listed above for seven days and the total DNA extracted as described (Mehta et al., ibid). DNA (20 μg) was digested with HindIII, resolved through a 1.2% agarose gel and transferred to nylon membranes. Membranes were then hybridized with a ^32P labeled probe containing the total HBV genome and developed as described (Lu et al., Proc. Natl. Acad. Sci. USA 94:2380-2385, 1997). The relaxed circular (rc), linear (lin), and closed circular (CCC) DNA were confirmed by enzymatic digestion.
An infected cell contains several forms of HBV DNA which represent different stages in the HBV life cycle. For example, covalently closed circular DNA (CCC DNA) is the nuclear form of the DNA and is thought to be the viral template (Heermann & Gerlich, 1992). In contrast, the relaxed circular DNA (re DNA) and linear forms (lin) are associated with the viral particle and their presence is an indicator of encapsidation of the viral pre-genomic RNA and the subsequent reverse transcription into progeny DNA (Ganem, Curr. Top. Microbiol. Immunol. 168:61-83, 1991). […] The amount of virus associated with the cells was detected seven days later by Southern blot analysis. The locations of the HBV relaxed circular DNA (rcDNA), covalently close circular (CCC) DNA, and single stranded (SS) DNA was identified by relative mobility.

[9] = target: T2, HBV polymerase (Hepatitis B virus genotype D subtype ayw, UniProt P03156); test: Endogenous polymerase assay on purified HBV virions; format: biochemical
T2 construct: HBV virions were purified from the culture medium of untreated cells by ultracentrifugation and the polymerase activity (in the presence of the indicated compounds) tested; expressed in transfected cells; host or cells: Hep G2.2.15 (HepG2 stably transfected with a dimer of the HBV genome); virions pelleted from the culture medium
T2 sequence (P03156 whole entry): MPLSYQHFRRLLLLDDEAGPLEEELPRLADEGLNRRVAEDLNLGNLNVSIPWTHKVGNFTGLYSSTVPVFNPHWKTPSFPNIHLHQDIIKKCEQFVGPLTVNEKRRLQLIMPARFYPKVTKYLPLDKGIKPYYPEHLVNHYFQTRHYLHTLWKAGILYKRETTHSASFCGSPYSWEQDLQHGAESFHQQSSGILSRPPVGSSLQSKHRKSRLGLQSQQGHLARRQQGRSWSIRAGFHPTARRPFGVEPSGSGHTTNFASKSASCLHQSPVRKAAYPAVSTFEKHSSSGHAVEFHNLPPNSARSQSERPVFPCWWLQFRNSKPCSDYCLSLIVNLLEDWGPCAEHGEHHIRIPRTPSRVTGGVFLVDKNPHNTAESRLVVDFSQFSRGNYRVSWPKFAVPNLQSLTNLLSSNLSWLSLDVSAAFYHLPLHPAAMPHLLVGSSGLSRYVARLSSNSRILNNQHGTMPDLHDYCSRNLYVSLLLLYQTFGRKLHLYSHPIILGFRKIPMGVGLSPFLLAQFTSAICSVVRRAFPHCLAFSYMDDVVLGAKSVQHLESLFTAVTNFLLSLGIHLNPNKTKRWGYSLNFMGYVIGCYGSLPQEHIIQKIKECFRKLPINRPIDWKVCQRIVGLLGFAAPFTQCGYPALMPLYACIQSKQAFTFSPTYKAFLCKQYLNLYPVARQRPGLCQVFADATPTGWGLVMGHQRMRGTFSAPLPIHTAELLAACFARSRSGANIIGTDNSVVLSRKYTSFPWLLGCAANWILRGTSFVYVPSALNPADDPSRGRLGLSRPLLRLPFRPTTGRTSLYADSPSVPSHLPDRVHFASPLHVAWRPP
Experimental: Endogenous polymerase assay: Media containing HBV from Hep G2.2.15 cells was pelleted through 20% sucrose (SW 28 Rotor, 24,000 RPM) for 16 hours and the pellet re-suspended in 50 μl of a mixture containing 50 mM Tris (pH 7.5), 75 mM NH4Cl, 1 mM EDTA, 25 mM MgCl2, 0.1% β-mercaptoethanol, 0.5% NP-40, 0.4 mM each of dATP, dGTP, dTTP and 10 μl of P^32 labeled dCTP. […] DNA was purified by a phenol/chloroform extraction and ethanol precipitation.
HBV DNA replication involves the conversion of a pregenomic RNA (pgRNA) into DNA by the action of the HBV polymerase. Current nucleoside analogue drugs (e.g., 3TC) for treating HBV target this reaction, preventing the formation and secretion of HBV viral DNA. Because the iminosugar N-nonyl-DGJ prevents the formation of HBV rc DNA, it was important to determine whether N-nonyl-DGJ was acting by inhibiting the elongation step of the polymerase. HBV virions from normal and drug treated Hep G2.2.15 cells were purified and the endogenous polymerase activity was measured. HBV virions were purified from the culture medium of untreated cells by ultracentrifugation and the polymerase activity (in the presence of the indicated compounds) tested by the method of Ganem et al. (1998). Briefly, partially purified viral particles were incubated overnight with the indicated concentrations of compound and 10 μCi of ^32P-dCTP. Viral DNA was purified by phenol extraction and ethanol precipitation and resolved on a 1.2% agarose gel. The gel was dried and viral DNA bands detected using a Phospholmager.

[10] = test system: Hep G2.2.15 cells; test: MTT toxicity in Hep G2.2.15 cultures; settings: Hep G2.2.15 cultures at conclusion of experiment (10 days)
[11] = test system: Hep G2.2.15 cells
[12] = Hepatitis B virus, HepG2.2.15, 216 h, Hep G2.2.15 cells, nine days of incubation, read-out: IC 50, secretion of HBV
[13] = MDBK cells, read-out: Anti-viral effect on BVDV in MDBK cells IC50
[14] = Bovine viral diarrhea virus isolates and strains, MDBK, read-out: Anti-viral effect on BVDV in MDBK cells IC50

SMILES: Nc1ccn([C@@H]2CS[C@H](CO)O2)c(=O)n1 [3TC, reference compound]
- IC50 [1, 12]: 5000 nM

SMILES: CCCCCCN1C[C@H](O)[C@@H](O)[C@H](O)[C@H]1CO [C6]
- % Viability at 10 μM [2]: 73%
- % Viability at 100 μM [2]: 71%
- IC50 [3]: 23.8 µM

SMILES: CCCCCCCCN1C[C@H](O)[C@@H](O)[C@H](O)[C@H]1CO [C8]
- % Viability at 10 μM [2]: 70%
- % Viability at 100 μM [2]: 71%
- IC50 [3]: 16.8 µM

SMILES: CCCCCCCCCCN1C[C@H](O)[C@@H](O)[C@H](O)[C@H]1CO [C10]
- % Viability at 10 μM [2]: 73%
- % Viability at 100 μM [2]: 43%
- IC50 [4]: 480 nM
- IC50 [3]: 3.1 µM

SMILES: CCCCCCCCCCCCN1C[C@H](O)[C@@H](O)[C@H](O)[C@H]1CO [C12]
- % Viability at 10 μM [2]: 86%
- % Viability at 100 μM [2]: 1%
- IC50 [3]: 5.2 µM

SMILES: OC[C@H]1NC[C@H](O)[C@@H](O)[C@@H]1O [DNJ, deoxynorjirimycin, reference compound]
- Inhibitor of α glucosidase [4]: Yes
- IC50 [5, 13]: 20000 nM
- Anti-viral effect on BVDV in MDBK cells [5]: Yes

SMILES: CCOCCCCCCN1C[C@H](O)[C@@H](O)[C@@H](O)[C@H]1C [N-7-oxa-nonyl MeDGJ, N-(7-oxa-nonyl)-1,5,6-trideoxy-1,5-imino-D-galactitol]
- CC50 [6]: 2.1 mM
- Inhibitor of α glucosidase [4]: No
- Inhibitor of glycolipid synthesis [3]: No
- Selectivity index (CC50/IC50) ([5]; BVDV in MDBK cells): 1400
- IC50 [5, 14]: 1500 nM
- Anti-viral effect on BVDV in MDBK cells [5]: Yes

SMILES: CCCCN1C[C@H](O)[C@@H](O)[C@@H](O)[C@H]1CO [N-butyl DGJ, reference compound]
- Inhibitor of α glucosidase [4]: No
- Anti-viral effect on BVDV in MDBK cells [5]: No

SMILES: CCCCN1C[C@H](O)[C@@H](O)[C@H](O)[C@H]1CO [N-butyl DNJ, N-butyl deoxynojiricmycin, reference compound]
- CC50 [2]: > 10000 µM
- % Viability at 10 μM [2]: 74%
- % Viability at 100 μM [2]: 77%
- IC50 [4]: 570 nM
- Inhibitor of α glucosidase [4]: Yes
- IC50 [5, 13]: 60000 to 120000 nM
- Anti-viral effect on BVDV in MDBK cells [5]: Yes
- Decrease of secreted virus DNA ([7]; 1000 μg/ml): about 3 fold
- Effect on intracellular HBV DNA [8]: dramatic increase in the replicative forms of HBV DNA
- Effect on HBV polymerase activity ([9]; 4.52 mM): no effect on polymerase activity

SMILES: CCCCCCCCCN1C[C@H](O)[C@@H](O)[C@@H](O)[C@H]1CO [N-nonyl DGJ, N-nonyl-1,5-dideoxy-1,5-imino-D-galactitol]
- CC50 [6]: 0.25 mM
- Inhibitor of α glucosidase [4]: No
- IC50 [5, 14]: 5000 nM
- Anti-viral effect on BVDV in MDBK cells [5]: Yes
- Reduction of enveloped HBV in the culture medium ([1]; Hep G2.2.15 cells, compared with untreated controls, nine days): at least as effective as NN-DNJ in reducing the HBV secretion
- IC50 [1, 12]: 1500 to 5000 nM
- IC50 ([1]; Hepatitis B virus, HepG2.2.15, read-out: IC50, HBV secretion): ~500 nM
- Decrease of secreted virus DNA ([7]; 20 μg/ml): about 14 fold
- Reduction of intracellular HBV DNA ([8]; 2 or 20 μg/ml): greater than 25 fold
- Effect on intracellular HBV DNA [8]: almost complete disappearance of intracellular HBV DNA
- Effect on HBV polymerase activity ([9]; 69 μM): no effect on polymerase activity
- TOX 50 (MTT activity reduced to 50%) [10]: >200 µM

SMILES: CCCCCCCCCN1C[C@H](O)[C@@H](O)[C@H](O)[C@H]1CO [N-nonyl DNJ, N-nonyl-deoxynojirimycin]
- CC50 [2]: 250 µM
- % Viability at 10 μM [2]: 56%
- % Viability at 100 μM [2]: 41%
- Inhibitor of α glucosidase [4]: Yes
- IC50 [5, 13]: 2000 to 3000 nM
- Anti-viral effect on BVDV in MDBK cells [5]: Yes
- IC50 ([1]; Hep G2.2.15 cells, antigen capture method, read-out: IC50, HBV secretion): ~1000 nM
- IC50 ([1]; Hep G2.2.15 cells, nine days of incubation, read-out: IC 50, secretion of HBV): 400 to 4000 nM
- Decrease of secreted virus DNA ([7]; 20 μg/ml): ~1.5 fold
- Effect on intracellular HBV DNA [8]: did not cause a large increase in intracellular HBV DNA but rather a reduction
- Effect on HBV polymerase activity ([9]; 69 μM): no effect on polymerase activity
- TOX 50 (MTT activity reduced to 50%) [11]: >100 µM

SMILES: CCCCCCCCCN1C[C@H](O)[C@@H](O)[C@@H](O)[C@H]1C [N-nonyl MeDGJ, N-nonyl-1,5,6-trideoxy-1,5-imino-D-galactitol]
- Inhibitor of α glucosidase [4]: No
- Inhibitor of glycolipid synthesis [3]: No
- IC50 ([5]; Bovine viral diarrhea virus isolates and strains, MDBK, read-out: IC50, BVDV plaques): < 2500 nM
- IC50 [5, 14]: 2000 to 3000 nM
- Anti-viral effect on BVDV in MDBK cells [5]: Yes
- melting point: 49 to 51 °C

From patent US7816560B1, “Long chain n-alkyl compounds and oxa-derivatives thereof” (Thomas Jefferson University, priority 1999, dated 2010)
